According to ChEMBL document CHEMBL4834444, “Discovery of novel N-1 substituted pyrazolopyrimidinones as potent, selective PDE2 inhibitors” (Bioorg Med Chem Lett, 2021):
Converted amounts (≈) assume the structure as drawn.

Columns and labels:
[1] = target: T1, PXR (nuclear receptor subfamily 1 group I member 2) (Homo sapiens, UniProt O75469); experiment: Inhibition of human PXR at 10 uM
T1 sequence (O75469 whole entry): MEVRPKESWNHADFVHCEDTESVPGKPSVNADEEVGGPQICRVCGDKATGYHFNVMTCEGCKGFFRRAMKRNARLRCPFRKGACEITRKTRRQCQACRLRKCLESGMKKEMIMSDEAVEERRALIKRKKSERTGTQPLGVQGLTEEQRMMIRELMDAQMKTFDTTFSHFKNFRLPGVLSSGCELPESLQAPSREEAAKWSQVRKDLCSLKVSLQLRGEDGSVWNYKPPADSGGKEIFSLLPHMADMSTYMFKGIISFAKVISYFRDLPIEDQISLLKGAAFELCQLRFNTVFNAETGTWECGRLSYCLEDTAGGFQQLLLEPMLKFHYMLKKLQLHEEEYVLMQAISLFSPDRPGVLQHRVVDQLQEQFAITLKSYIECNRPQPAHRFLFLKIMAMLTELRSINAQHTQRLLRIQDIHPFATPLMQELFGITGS

[2] = Plasma protein binding in rhesus monkey assessed as unbound fraction; assay type: ADME, cell-free, Macaca mulatta
[3] = target: cAMP and cAMP-inhibited cGMP 3',5'-cyclic phosphodiesterase 10A (Homo sapiens, UniProt Q9Y233); experiment: Inhibition of human PDE10
Chain of cAMP and cAMP-inhibited cGMP 3',5'-cyclic phosphodiesterase 10A (Q9Y233 whole entry): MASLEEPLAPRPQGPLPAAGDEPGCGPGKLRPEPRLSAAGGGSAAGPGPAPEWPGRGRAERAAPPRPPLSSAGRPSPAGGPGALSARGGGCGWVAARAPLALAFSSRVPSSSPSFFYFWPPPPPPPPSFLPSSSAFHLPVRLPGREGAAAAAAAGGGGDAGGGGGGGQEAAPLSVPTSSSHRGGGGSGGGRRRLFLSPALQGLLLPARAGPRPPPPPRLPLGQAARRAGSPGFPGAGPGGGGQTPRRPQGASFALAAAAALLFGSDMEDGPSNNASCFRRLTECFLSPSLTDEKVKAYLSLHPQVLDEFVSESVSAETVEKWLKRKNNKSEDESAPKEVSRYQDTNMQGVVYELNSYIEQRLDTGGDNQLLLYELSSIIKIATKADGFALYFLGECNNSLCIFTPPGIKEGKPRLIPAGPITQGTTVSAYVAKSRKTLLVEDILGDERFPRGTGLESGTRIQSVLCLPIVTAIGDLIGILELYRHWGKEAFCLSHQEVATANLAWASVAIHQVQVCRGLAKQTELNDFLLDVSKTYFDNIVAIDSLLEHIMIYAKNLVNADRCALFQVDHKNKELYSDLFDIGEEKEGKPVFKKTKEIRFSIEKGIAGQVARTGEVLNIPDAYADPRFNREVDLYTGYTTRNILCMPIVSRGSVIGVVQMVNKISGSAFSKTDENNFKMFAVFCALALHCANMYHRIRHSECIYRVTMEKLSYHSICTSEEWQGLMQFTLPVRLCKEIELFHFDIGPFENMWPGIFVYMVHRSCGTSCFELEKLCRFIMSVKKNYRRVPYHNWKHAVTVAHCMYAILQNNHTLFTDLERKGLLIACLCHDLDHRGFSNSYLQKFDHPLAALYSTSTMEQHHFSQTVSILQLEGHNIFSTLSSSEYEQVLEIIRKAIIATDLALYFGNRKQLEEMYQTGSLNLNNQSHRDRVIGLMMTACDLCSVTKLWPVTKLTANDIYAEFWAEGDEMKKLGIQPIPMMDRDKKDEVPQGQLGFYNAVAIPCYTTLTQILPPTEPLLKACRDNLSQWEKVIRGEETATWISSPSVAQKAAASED

[4] = target: cGMP-specific 3',5'-cyclic phosphodiesterase (Homo sapiens, UniProt O76074); experiment: Inhibition of human PDE5
[5] = Plasma clearance in rat; assay type: ADME
[6] = Inhibition of human PDE3
[7] = Half life in rat; assay type: ADME; details: in vivo
Phosphodiesterase 4 = Phosphodiesterase 4 (Homo sapiens, UniProt P27815+Q08499+Q07343+Q08493); experiment: Inhibition of human PDE4; assay type: protein assay
[8] = Mean residence time in rat; assay type: ADME; details: in vivo
Phosphodiesterase 7 = Phosphodiesterase 7 (Homo sapiens, UniProt Q13946+Q9NP56); experiment: Inhibition of human PDE7; assay type: protein assay
Homo sapiens = species on record: Homo sapiens; experiment: Inhibition of Ion channel (unknown origin)
Cytochrome P450 3A4 = Cytochrome P450 3A4 (Homo sapiens, UniProt P08684); experiment: Inhibition of CYP3A4 (unknown origin); assay type: ADME
Chain of Cytochrome P450 3A4 (P08684 whole entry): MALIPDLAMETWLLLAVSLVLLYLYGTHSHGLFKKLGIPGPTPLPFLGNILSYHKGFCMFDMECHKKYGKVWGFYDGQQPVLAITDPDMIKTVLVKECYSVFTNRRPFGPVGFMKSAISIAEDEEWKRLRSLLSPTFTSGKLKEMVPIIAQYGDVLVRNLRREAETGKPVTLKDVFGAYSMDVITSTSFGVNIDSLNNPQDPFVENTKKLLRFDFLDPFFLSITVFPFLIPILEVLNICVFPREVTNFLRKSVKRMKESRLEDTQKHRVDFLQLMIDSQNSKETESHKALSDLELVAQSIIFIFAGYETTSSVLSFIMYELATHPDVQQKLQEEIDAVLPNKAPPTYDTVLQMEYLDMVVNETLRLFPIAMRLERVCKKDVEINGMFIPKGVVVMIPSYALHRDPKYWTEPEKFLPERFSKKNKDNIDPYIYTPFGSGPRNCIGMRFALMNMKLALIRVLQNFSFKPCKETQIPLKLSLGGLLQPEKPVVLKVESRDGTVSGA

[9] = Kinetic solubility of compound in FaSSIF; assay type: physicochemical; details: read-out: Kinetic_solubility
[10] = Plasma protein binding in human assessed as unbound fraction; assay type: ADME, cell-free
[11] = Inhibition of human PDE1
[12] = target: Dual 3',5'-cyclic-AMP and -GMP phosphodiesterase 11A (Homo sapiens, UniProt Q9HCR9); experiment: Inhibition of human PDE11
Chain of Dual 3',5'-cyclic-AMP and -GMP phosphodiesterase 11A (Q9HCR9 whole entry): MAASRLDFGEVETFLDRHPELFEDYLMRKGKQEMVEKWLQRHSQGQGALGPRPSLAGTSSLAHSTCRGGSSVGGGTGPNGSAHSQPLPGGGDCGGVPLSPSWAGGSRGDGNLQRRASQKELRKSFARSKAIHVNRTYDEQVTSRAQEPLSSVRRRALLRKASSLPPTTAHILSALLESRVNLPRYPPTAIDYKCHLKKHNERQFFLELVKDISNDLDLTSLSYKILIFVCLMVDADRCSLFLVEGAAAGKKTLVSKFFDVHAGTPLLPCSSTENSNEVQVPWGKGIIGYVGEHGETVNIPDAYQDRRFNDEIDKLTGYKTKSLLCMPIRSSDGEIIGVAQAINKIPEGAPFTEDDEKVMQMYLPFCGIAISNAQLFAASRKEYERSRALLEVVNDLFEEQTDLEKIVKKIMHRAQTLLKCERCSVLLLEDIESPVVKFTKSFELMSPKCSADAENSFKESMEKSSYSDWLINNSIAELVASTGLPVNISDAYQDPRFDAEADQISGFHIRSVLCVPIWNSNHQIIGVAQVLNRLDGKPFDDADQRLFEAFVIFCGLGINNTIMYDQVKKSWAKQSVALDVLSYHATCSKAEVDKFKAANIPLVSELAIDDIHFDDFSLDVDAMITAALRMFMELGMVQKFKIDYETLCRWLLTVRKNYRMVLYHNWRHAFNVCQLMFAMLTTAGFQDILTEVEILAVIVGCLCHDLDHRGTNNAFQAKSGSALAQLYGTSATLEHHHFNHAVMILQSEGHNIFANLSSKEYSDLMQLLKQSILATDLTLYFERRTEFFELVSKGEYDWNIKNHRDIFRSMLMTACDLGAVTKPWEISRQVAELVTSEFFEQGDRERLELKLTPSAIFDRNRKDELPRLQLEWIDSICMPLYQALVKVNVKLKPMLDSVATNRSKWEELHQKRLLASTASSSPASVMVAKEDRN

Cytochrome P450 2C9 = Cytochrome P450 2C9 (Homo sapiens, UniProt P11712); experiment: Inhibition of CYP2C9 (unknown origin); assay type: ADME
Chain of Cytochrome P450 2C9 (P11712 whole entry): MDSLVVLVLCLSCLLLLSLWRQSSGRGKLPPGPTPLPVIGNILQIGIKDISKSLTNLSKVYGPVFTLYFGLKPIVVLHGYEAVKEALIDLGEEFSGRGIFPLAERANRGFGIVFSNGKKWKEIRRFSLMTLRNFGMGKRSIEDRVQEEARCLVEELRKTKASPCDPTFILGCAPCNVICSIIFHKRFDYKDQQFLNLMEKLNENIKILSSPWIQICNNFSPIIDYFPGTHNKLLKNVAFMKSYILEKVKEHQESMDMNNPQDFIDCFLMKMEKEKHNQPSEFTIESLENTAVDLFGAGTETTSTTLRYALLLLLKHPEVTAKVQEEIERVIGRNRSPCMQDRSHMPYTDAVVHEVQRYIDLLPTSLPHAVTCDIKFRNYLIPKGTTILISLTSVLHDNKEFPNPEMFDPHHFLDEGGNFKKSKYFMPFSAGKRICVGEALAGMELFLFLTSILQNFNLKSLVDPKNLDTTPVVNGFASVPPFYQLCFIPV

[13] = Inhibition of human PDE8
[14] = target: High affinity cGMP-specific 3',5'-cyclic phosphodiesterase 9A (Homo sapiens, UniProt O76083); experiment: Inhibition of human PDE9
Chain of High affinity cGMP-specific 3',5'-cyclic phosphodiesterase 9A (O76083 whole entry): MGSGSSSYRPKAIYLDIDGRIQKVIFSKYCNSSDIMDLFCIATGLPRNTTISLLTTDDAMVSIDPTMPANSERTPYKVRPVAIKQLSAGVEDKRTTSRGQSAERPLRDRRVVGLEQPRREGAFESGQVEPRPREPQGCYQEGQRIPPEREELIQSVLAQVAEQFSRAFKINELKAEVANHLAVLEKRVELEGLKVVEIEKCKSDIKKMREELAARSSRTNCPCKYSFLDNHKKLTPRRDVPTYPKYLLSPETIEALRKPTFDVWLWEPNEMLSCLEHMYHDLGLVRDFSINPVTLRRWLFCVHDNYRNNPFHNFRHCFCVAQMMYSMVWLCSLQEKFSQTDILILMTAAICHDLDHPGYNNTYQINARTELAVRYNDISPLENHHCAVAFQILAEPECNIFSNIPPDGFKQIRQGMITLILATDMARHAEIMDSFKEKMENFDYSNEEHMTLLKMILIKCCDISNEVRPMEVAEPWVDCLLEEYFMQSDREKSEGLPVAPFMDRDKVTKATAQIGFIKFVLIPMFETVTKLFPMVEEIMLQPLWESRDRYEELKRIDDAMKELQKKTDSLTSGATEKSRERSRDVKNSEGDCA

[15] = Plasma protein binding in rat assessed as unbound fraction; assay type: ADME, cell-free
[16] = Kinetic solubility of compound at pH 2; assay type: physicochemical; details: buffer, read-out: Kinetic_solubility
[17] = Kinetic solubility of compound at pH 7; assay type: physicochemical; details: buffer, read-out: Kinetic_solubility
Phosphodiesterase 6 = experiment: Inhibition of human PDE6; assay type: protein assay
Cytochrome P450 2D6 = Cytochrome P450 2D6 (Homo sapiens, UniProt P10635); experiment: Inhibition of CYP2D6 (unknown origin); assay type: ADME
Chain of Cytochrome P450 2D6 (P10635 whole entry): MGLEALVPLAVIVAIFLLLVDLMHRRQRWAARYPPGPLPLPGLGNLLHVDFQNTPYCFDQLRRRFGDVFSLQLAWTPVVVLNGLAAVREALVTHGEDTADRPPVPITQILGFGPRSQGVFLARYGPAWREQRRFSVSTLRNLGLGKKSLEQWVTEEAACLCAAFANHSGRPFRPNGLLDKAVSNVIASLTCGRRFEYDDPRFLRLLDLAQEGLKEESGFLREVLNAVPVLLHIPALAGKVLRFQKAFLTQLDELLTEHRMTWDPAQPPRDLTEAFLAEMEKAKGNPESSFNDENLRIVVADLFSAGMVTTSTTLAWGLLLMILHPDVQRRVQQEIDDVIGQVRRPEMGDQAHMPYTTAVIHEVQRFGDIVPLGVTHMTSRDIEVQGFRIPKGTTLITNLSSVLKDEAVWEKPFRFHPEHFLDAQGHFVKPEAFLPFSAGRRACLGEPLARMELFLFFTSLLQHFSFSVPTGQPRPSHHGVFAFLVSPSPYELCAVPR

inhibition at 10 µM [1] [%]	fraction unbound [2]	IC50 [3] [µM]	IC50 [4] [µM]	clearance [5] [mL/min/kg]	IC50 [6] [µM]	half-life [7] [h]	IC50 (Phosphodiesterase 4) [µM]	MRT [8] [h]	IC50 (Phosphodiesterase 7) [µM]	INH (Homo sapiens) [µM]	INH (Cytochrome P450 3A4) [µM]	solubility kinetic [9] [µM]	fraction unbound [10]	IC50 [11] [µM]	IC50 [12] [µM]	INH (Cytochrome P450 2C9) [µM]	IC50 [13] [µM]	IC50 [14] [µM]	fraction unbound [15]	SMILES	also measured
16	0.035	18	23	24	1.8	3.1	3.5	2.5	> 75	9.6	44	148 (≈ 56.9 µg/mL)	0.03	> 60	6.2	> 50	> 50	> 50	0.049	Cc1nc2c([C@H](C)c3ccc(C(F)(F)F)c(F)c3)nn(CCO)c2c(=O)[nH]1	solubility kinetic [16]: 117 µM (≈ 45 µg/mL); solubility kinetic [17]: 115 µM (≈ 44.2 µg/mL); IC50 (Phosphodiesterase 6): 27 µM; INH (Cytochrome P450 2D6): > 50 µM
45	0.016	5.8	21	49	5.7	1.4	3.3	0.8	> 75	17	> 50	177 (≈ 63.1 µg/mL)	0.009	> 60	0.6	> 50	> 50	> 50	0.014	Cc1nc2c([C@H](C)c3ccc(C(C)(C)C)cc3)nn(CCF)c2c(=O)[nH]1	solubility kinetic [16]: 60 µM (≈ 21.4 µg/mL); solubility kinetic [17]: 20 µM (≈ 7.13 µg/mL); IC50 (Phosphodiesterase 6): 11 µM; INH (Cytochrome P450 2D6): > 50 µM
